One assay relates to HCT-116. Briefly: In vitro cytotoxic activity (growth inhibition) of compound against HCT 116 cancer cell line was determined. The assay is classed as functional. The settings on record: Homo sapiens.
The target of assay [1] is Tubulin alpha chain (Sus scrofa) (UniProt P02550). In words: Inhibitory binding percentage of compound towards colchicine site in tubulin using tubulin-[3H]colchicine as radioligand at a concentration of 100 uM.
A further assay addresses Tubulin (Sus scrofa, UniProt P02554+P02550). Briefly: Concentration of compound required to inhibit tubulin polymerization (Microtubule assembly) was determined by the turbidity formation after 20 min of incubation. The assay is classed as functional.
In assay [2] the target is Tubulin alpha chain (Sus scrofa) (UniProt P02550). In words: Inhibitory binding percentage of compound towards colchicine site in tubulin using tubulin-[3H]colchicine as radioligand at a concentration of 200 uM.
Another assay has as its system PC-12. In words: In vitro cytotoxic activity (growth inhibition) of compound against PC-12 human cancer cell line was determined.

Molecules are shown by their SMILES. ≈ marks a conversion by molar mass, not a printed value.

Tubulin alpha chain (Sus scrofa), sequence (P02550 whole entry, looked up): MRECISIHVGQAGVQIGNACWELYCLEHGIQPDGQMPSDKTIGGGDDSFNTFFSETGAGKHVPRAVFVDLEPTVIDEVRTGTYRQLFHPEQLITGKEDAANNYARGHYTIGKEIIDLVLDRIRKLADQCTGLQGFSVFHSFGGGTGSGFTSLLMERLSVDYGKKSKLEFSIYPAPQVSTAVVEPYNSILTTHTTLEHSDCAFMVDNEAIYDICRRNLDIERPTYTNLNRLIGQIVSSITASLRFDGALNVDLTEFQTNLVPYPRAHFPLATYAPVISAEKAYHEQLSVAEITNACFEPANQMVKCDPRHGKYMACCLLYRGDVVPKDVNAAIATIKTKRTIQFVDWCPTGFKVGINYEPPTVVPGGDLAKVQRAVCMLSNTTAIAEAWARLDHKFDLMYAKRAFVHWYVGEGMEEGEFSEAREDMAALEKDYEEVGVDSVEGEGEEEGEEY

As to `Cc1c(/C=C/CN2CCN(c3cc(F)cc(F)c3)CC2)cnn1-c1ncccn1.Cl`, the figures for the GI50 in the assay on HCT-116 and in the assay with PC-12 were 0.0701 µg/mL and 0.0625 µg/mL, respectively. Besides, the values for the Inhibitory binding in assay [1] and in assay [2] were 82% and 93%, respectively. The IC50 on Tubulin was 9.08 µM.
As for `Cc1c(/C=C/CN2CCN(c3cccc(Cl)c3)CC2)cnn1-c1ncccn1.Cl`, the GI50 with HCT-116 was 0.254 µg/mL; in the assay with PC-12 it was 0.181 µg/mL. On Tubulin, this molecule came in with an IC50 of 35.96 µM.
In the case of `CC[C@]1(O)C[C@@H]2CN(CCc3c([nH]c4ccccc34)[C@@](C(=O)OC)(c3cc4c(cc3OC)N(C)[C@H]3[C@@](O)(C(=O)OC)[C@H](OC(C)=O)[C@]5(CC)C=CCN6CC[C@]43[C@@H]65)C2)C1` [VINBLASTINE], the results for the GI50 in the assay on HCT-116 and with PC-12 were 0.001 µg/mL (≈ 0.00123 µM) and 0.0102 µg/mL (≈ 0.0126 µM), respectively.
As to `Cc1c(/C=C/CN2CCN(c3cc(F)cc(F)c3)CC2)cnn1-c1ccnc(N)n1.Cl`, the GI50 with HCT-116 was 0.0329 µg/mL; with PC-12, 0.0199 µg/mL. Moreover, the IC50 at Tubulin was 3.72 µM.
For the molecule `Cc1c(/C=C/CN2CCN(c3cc(F)cc(F)c3)CC2)cnn1-c1nccc(N)n1.Cl`, the figures for the GI50 with HCT-116 and in the assay with PC-12 were 0.0208 µg/mL and 0.0216 µg/mL, respectively. On Tubulin, this molecule displayed an IC50 of 11.05 µM.
As to `COc1cc2c(c(OC)c1OC)-c1ccc(OC)c(=O)cc1[C@@H](NC(C)=O)CC2` [COLCHICINE], the GI50 turned out to be 0.0084 µg/mL (≈ 0.021 µM) in the assay on HCT-116 and 0.0315 µg/mL (≈ 0.0789 µM) in the assay with PC-12. Besides, the Inhibitory binding in assay [1] was determined as 98%; in assay [2], 100%.

As usually defined, the GI50 is the concentration that inhibits growth by half. High values mean less potent growth inhibition, low ones more potent growth inhibition. The IC50 is the concentration needed to halve the response being measured. High values mean lower potency, low ones higher potency.

The values above are taken from ChEMBL document CHEMBL1135557 (Bioorg Med Chem Lett, 2002).
